Results as given in US12029771B2, “Neem for treatment of RLS” (priority 2018, dated 2024).

System: symptoms of restless legs syndrome (RLS)
Assay: Treatment of RLS patient, Case No. 1
Assay type: in vivo, human
Conditions: L-Dopa treatment before neem

SMILES: N[C@@H](Cc1ccc(O)c(O)c1)C(=O)O [L-Dopa]
- symptoms of RLS under exposure to L-Dopa: did not completely cease
